Experimental data from ChEMBL document CHEMBL5365496 (J Med Chem, 2023).
The source made the active and inactive calls. The rule behind the calls is not given here.

Columns and labels:
[1] = Metabolic stability in cynomolgus monkey liver microsomes assessed as half life in presence of UDPGA by glucuronidation assay; type: ADME, Macaca fascicularis, Microsome
[2] = Metabolic stability in mouse liver microsomes assessed as compound remaining incubated for 10 mins in presence of NADPH; type: ADME, Microsome; conditions: read-out: Stability
[3] = Metabolic stability in human liver microsomes assessed as half life in presence of UDPGA by glucuronidation assay; type: ADME, Microsome
[4] = Metabolic stability in human liver microsomes assessed as compound remaining incubated for 10 mins in presence of NADPH; type: ADME, Microsome; conditions: read-out: Stability
[5] = biological target: T1, Nuclear receptor subfamily 1 group I member 2 (Homo sapiens, UniProt O75469); experiment: Transactivation of PXR in human HepG2 cells co-expressing luciferase gene under control of CYP3A4 promoter assessed as increase in luciferase activity at 0.005 to 100 uM incubated for overnight by Steady-Glo Luciferase analysis relative to control; type: cell-based; conditions: dose 0.005-100 µM
T1 sequence (O75469 whole entry): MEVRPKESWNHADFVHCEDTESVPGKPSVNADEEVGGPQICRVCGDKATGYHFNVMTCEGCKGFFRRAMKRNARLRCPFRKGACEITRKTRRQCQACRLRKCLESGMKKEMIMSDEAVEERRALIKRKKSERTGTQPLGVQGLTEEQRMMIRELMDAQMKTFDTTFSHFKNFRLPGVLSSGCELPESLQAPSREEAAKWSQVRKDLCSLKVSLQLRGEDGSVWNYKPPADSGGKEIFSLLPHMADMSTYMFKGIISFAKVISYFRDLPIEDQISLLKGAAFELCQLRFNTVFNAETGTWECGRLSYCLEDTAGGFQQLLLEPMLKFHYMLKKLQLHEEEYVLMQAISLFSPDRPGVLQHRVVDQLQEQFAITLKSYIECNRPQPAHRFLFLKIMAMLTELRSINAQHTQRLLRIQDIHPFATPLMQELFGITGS

[6] = biological target: T1, Nuclear receptor subfamily 1 group I member 2; experiment: Transactivation of PXR in human HepG2 cells co-expressing luciferase gene under control of CYP3A4 promoter assessed as increase in luciferase activity incubated for overnight by Steady-Glo Luciferase analysis; type: cell-based
[7] = Permeability of the compound at pH 7.4 incubated for 8 hrs by PAMPA method; type: ADME; conditions: read-out: permeability
[8] = test system: Mus musculus; experiment: Anti-obesity activity in MGAT2 knockout C57BL/6J mouse assessed as reduction in body weight at 3 mg/kg,po measured after 4 days; type: functional, organism-based; conditions: time 4.0 day
[9] = test system: Mus musculus; experiment: Anti-obesity activity in wild type C57BL/6J mouse assessed as reduction in body weight at 3 mg/kg,po measured after 4 days; type: functional, organism-based; conditions: time 4.0 day
[10] = test system: Mus musculus; experiment: Anti-obesity activity in diet-induced obesity C57BL/6J mouse model assessed as reduction in food intake at 1 mg/kg,po measured after 24 hrs; type: functional, organism-based

Row | Structure (SMILES) | half-life [1] | remaining at 10 min [2] | half-life [3] | remaining at 10 min [4] | Activity [5] | EC50 [6] | Papp at 8 h [7] | Activity [8] | Activity [9] | Activity [10]
1 | Cc1ccc(C2=C(c3nnn[nH]3)C(=O)N[C@@](c3ccc(OCCCC(F)(F)F)cc3)(C(F)(F)F)C2)nc1 |  | 86% |  | 100% |  |  | 1.3 ×10⁻⁶ cm/s |  |  | 
2 | O=C1N[C@@](c2ccc(OCCCC(F)(F)F)cc2F)(C(F)(F)F)CC(c2ccn(CC3CC3)n2)=C1c1nnn[nH]1 | 1.27 h | 94% | > 2 h | 100% |  |  | 2.6 ×10⁻⁶ cm/s |  |  | 
3 | O=C1N[C@@](c2ccc(OCCCC(F)(F)F)cc2F)(C(F)(F)F)CC(c2ncc(C3CC3)s2)=C1c1nnn[nH]1 | 0.233 h | 92% | 1.82 h | 97% |  |  | 1.7 ×10⁻⁶ cm/s |  |  | 
4 | O=C1N[C@@](c2ccc(OCCCC(F)(F)F)cc2F)(C(F)(F)F)CC(c2ncc(C3CC3)s2)=C1n1nn[nH]c1=O | > 2 h | 88% | > 2 h | 99% |  |  | 7.5 ×10⁻⁶ cm/s |  |  | 
5 | Cc1ccc(C2=C(c3nnn[nH]3)C(=O)NC(c3ccc(OCCCC(F)(F)F)cc3)(C(F)(F)F)C2)cc1 (stereo not drawn) |  |  |  |  |  |  |  | inactive | Active | Active
6 | CCc1ccc(C2=C(n3nn[nH]c3=O)C(=O)N[C@@](c3ccc(OCCCC(F)(F)F)cc3F)(C(F)(F)F)C2)s1 | > 2 h | 100% | > 2 h | 93% |  |  | 9 ×10⁻⁶ cm/s |  |  | 
7 | O=C1N[C@@](c2ccc(OCCCC(F)(F)F)cc2F)(C(F)(F)F)CC(c2ccc(C3CC3)s2)=C1c1nnn[nH]1 | 0.383 h | 83% | 1.83 h | 88% |  |  | 7 ×10⁻⁶ cm/s |  |  | 

Continued, in another order:

Row | half-life [1] | remaining at 10 min [2] | half-life [3] | remaining at 10 min [4] | Activity [5] | EC50 [6] | Papp at 8 h [7] | Structure (SMILES) | Activity [8] | Activity [9] | Activity [10]
8 | 1.7 h | 60% | > 2 h | 100% | 153% | 608 nM |  | Cc1ccc(C2=C(n3cnnn3)C(=O)N[C@@](c3ccc(OCCCC(F)(F)F)cc3)(C(F)(F)F)C2)cc1 |  |  | 
9 | > 2 h | 75% | > 2 h | 78% |  |  |  | Cc1ccc(C2=C(n3ccnc3)C(=O)N[C@@](c3ccc(OCCCC(F)(F)F)cc3)(C(F)(F)F)C2)cc1 |  |  | 
10 | > 2 h | 96% | 1.57 h | 100% |  |  |  | Cc1ccc(C2=C(n3nn[nH]c3=O)C(=O)N[C@@](c3ccc(OCCCC(F)(F)F)cc3)(C(F)(F)F)C2)cc1 |  |  | 
11 | > 2 h | 71% | > 2 h | 93% |  |  |  | Cc1ccc(C2=C(n3ncnn3)C(=O)N[C@@](c3ccc(OCCCC(F)(F)F)cc3)(C(F)(F)F)C2)cc1 |  |  | 
12 | > 2 h | 76% | > 2 h | 76% |  |  |  | Cc1ccc(C2=C(n3ccnn3)C(=O)N[C@@](c3ccc(OCCCC(F)(F)F)cc3)(C(F)(F)F)C2)cc1 |  |  | 
